{"source": "patent US9303025B2", "about": "“Apoptosis-inducing agents for the treatment of cancer and immune and autoimmune diseases” (AbbVie Inc., priority 2008, dated 2016)"}
{"molecular_target": "GST-Bcl-2 (Homo sapiens (Human), UniProt P10415)", "sequence (P10415 whole entry)": "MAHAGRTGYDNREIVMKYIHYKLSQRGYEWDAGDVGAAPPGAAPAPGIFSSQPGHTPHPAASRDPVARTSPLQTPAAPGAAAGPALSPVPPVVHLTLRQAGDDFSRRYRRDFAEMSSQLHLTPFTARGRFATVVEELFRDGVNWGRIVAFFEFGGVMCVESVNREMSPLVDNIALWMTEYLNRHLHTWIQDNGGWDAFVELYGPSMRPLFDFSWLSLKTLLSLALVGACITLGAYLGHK", "assay": "Time Resolved-Fluorescence Resonance Energy Transfer (TR-FRET) Bcl-2 binding assay", "conditions": "GST-Bcl-2 1 nM, F-Bak peptide probe 100 nM, Tb-anti-GST antibody 1 nM; 3 hours at room temperature; Ki by Wang's equation", "units": {"Ki": "nM"}, "method": "Tb-anti-GST antibody was purchased from Invitrogen (Catalog No. PV4216).\nRepresentative compounds were serially diluted in dimethyl sulfoxide (DMSO) starting at 50 μM (2× starting concentration; 10% DMSO) and 10 μL were transferred into a 384-well plate. The samples are then mixed on a shaker for 1 minute and incubated for an additional 3 hours at room temperature. For each assay, the probed antibody and protein/probe/antibody were included on each assay plate as negative and positive controls, respectively. Fluorescence was measured on the Envision (Perkin Elmer) using a 340/35 nm excitation filter and 520/525 (F-Bak peptide) and 495/510 nm (Tb-labeled anti-Histidine antibody) emission filters.\nThe samples were then mixed on a shaker for 1 minute and incubated for an additional 3 hours at room temperature. For each assay, the probe/antibody and protein/probe/antibody were included on each assay plate as negative and positive controls, respectively. Fluorescence was measured on the Envision (Perkin Elmer) using a 340/35 nm excitation filter and 520/525 (F-Bak peptide) and 495/510 nm (Tb-labeled anti-Histidine antibody) emission filters.\nThe inhibition constant (Ki) is the dissociation constant of an enzyme-inhibitor complex or a protein/small molecule complex, wherein the small molecule is inhibiting binding of one protein to another protein. So a large Ki value indicates a low binding affinity and a small Ki value indicates a high binding affinity."}
{"molecule": "4-(4-{[2-(4-chlorophenyl)-4,4-dimethylcyclohex-1-en-1-yl]methyl}piperazin-1-yl)-N-[(4-{[3-(dimethylamino)propyl]amino}-3-nitrophenyl]-2-(3-fluorophenoxy)benzamide [Example 138]", "Ki": 0.016}
{"molecule": "CC1(C)CCC(CN2CCN(c3ccc(C(=O)NS(=O)(=O)c4ccc(NCC5CCOCC5)c([N+](=O)[O-])c4)c(Oc4cccc5c4CC(=O)N5)c3)CC2)=C(c2ccc(Cl)cc2)C1", "note": "[Example 268, 4-(4-{[2-(4-chlorophenyl)-4,4-dimethylcyclohex-1-en-1-yl]methyl}piperazin-1-yl)-N-({3-nitro-4-[(tetrahydro-2H-pyran-4-ylmethyl)amino]phenyl}sulfonyl)-2-[(2-oxo-2,3-dihydro-1H-indol-4-yl)oxy]benzamide]", "Ki": 0.042}
{"molecule": "CC1(C)CCC(CN2CCN(c3ccc(C(=O)NS(=O)(=O)c4ccc(NCCCN5CCCC5)c([N+](=O)[O-])c4)c(Oc4cccc(Cl)c4F)c3)CC2)=C(c2ccc(Cl)cc2)C1", "note": "[Example 149, 2-(3-chloro-2-fluorophenoxy)-4-(4-{[2-(4-chlorophenyl)-4,4-dimethylcyclohex-1-en-1-yl]methyl}piperazin-1-yl)-N-({3-nitro-4-[(3-pyrrolidin-1-ylpropyl)amino]phenyl}sulfonyl)benzamide]", "Ki": 0.03}
